Calls of active or inactive are those of the source. The calls are words filed in the database; no cut-off is given here.
Assays:
[1] = system: Rattus norvegicus; assay: Neurotoxicity in MES Sprague-Dawley rat model at 30 mg/kg, po measured after 2 hrs; format: toxicity, organism-based; parameters: dose 30 mg/kg, route oral; conditions: in vivo
[2] = system: Rattus norvegicus; assay: Anticonvulsant activity in Sprague-Dawley rat assessed as protection against maximal electroshock-induced seizures at 30 mg/kg, po measured after 1 hr; format: functional, organism-based; parameters: dose 30 mg/kg
[3] = system: Rattus norvegicus; assay: Neurotoxicity in MES Sprague-Dawley rat model at 30 mg/kg, po measured after 0.25 hr; format: toxicity, organism-based; parameters: dose 30 mg/kg, route oral; conditions: in vivo
[4] = system: Mus musculus; assay: Anticonvulsant activity in ip dosed albino CF1 mouse assessed as protection against maximal electroshock-induced seizures; format: functional
[5] = system: Rattus norvegicus; assay: Anticonvulsant activity in pilocarpine-induced status prevention Sprague-Dawley rat model assessed as weight change 24 hrs post-first stage 3 seizure of protected rat at 200 mg/kg, ip; format: functional; conditions: route intraperitoneal
[6] = system: Mus musculus; assay: Anticonvulsant activity in ip dosed albino CF1 mouse assessed as protection against 32 mA current-induced seizures; format: functional
[7] = system: Mus musculus; assay: Anticonvulsant activity in ip dosed albino CF1 mouse assessed as protection against 6 Hz current-induced seizures measured as time to peak effect; format: functional
[8] = system: Mus musculus; assay: Neurotoxicity in albino CF1 mouse at 100 mg/kg, ip measured after 0.5 hr; format: toxicity, organism-based; parameters: dose 100 mg/kg, route intraperitoneal; conditions: in vivo
[9] = system: Mus musculus; assay: Anticonvulsant activity in albino CF1 mouse assessed as protection against maximal electroshock-induced seizures at 100 mg/kg, ip measured after 0.5 hr; format: functional, organism-based; parameters: dose 100 mg/kg
[10] = system: Mus musculus; assay: Neurotoxicity in 32 mA current-induced seizure albino CF1 mouse model at 100 mg/kg, ip measured after 0.5 hr; format: toxicity, organism-based; parameters: dose 100 mg/kg, route intraperitoneal; conditions: in vivo
[11] = system: Mus musculus; assay: Neurotoxicity in albino CF1 mouse at 100 mg/kg, ip measured after 4 hrs; format: toxicity, organism-based; parameters: dose 100 mg/kg, route intraperitoneal; conditions: in vivo
[12] = system: Rattus norvegicus; assay: Neurotoxicity in MES Sprague-Dawley rat model at 30 mg/kg, ip measured after 4 hrs; format: toxicity, organism-based; parameters: dose 30 mg/kg, route intraperitoneal; conditions: in vivo
[13] = system: Rattus norvegicus; assay: Anticonvulsant activity in pilocarpine-induced status prevention Sprague-Dawley rat model assessed as weight change 24 hrs post-first stage 3 seizure of non-protected rat at 200 mg/kg, ip measured after 0.5 hr; format: functional; conditions: route intraperitoneal
[14] = system: Mus musculus; assay: Anticonvulsant activity in ip dosed corneal kindled albino CF1 mouse seizure model; format: functional
[15] = Neurotoxicity in ip dosed albino CF1 mouse; format: toxicity, organism-based; conditions: in vivo
[16] = system: Rattus norvegicus; assay: Anticonvulsant activity in Sprague-Dawley rat assessed as protection against maximal electroshock-induced seizures at 30 mg/kg, po measured after 0.5 hr; format: functional, organism-based; parameters: dose 30 mg/kg
[17] = system: Rattus norvegicus; assay: Neurotoxicity in MES Sprague-Dawley rat model at 30 mg/kg, ip measured after 0.5 hr; format: toxicity, organism-based; parameters: dose 30 mg/kg, route intraperitoneal; conditions: in vivo
[18] = system: Rattus norvegicus; assay: Neurotoxicity in MES Sprague-Dawley rat model at 30 mg/kg, po measured after 1 hr; format: toxicity, organism-based; parameters: dose 30 mg/kg, route oral; conditions: in vivo
[19] = system: Mus musculus; assay: Neurotoxicity in 32 mA current-induced seizure albino CF1 mouse model at 100 mg/kg, ip measured after 4 hrs; format: toxicity, organism-based; parameters: dose 100 mg/kg, route intraperitoneal; conditions: in vivo
[20] = system: Rattus norvegicus; assay: Neurotoxicity in MES Sprague-Dawley rat model at 30 mg/kg, po measured after 4 hrs; format: toxicity, organism-based; parameters: dose 30 mg/kg, route oral; conditions: in vivo
[21] = system: Rattus norvegicus; assay: Neurotoxicity in MES Sprague-Dawley rat model at 30 mg/kg, ip measured after 0.25 hr; format: toxicity, organism-based; parameters: dose 30 mg/kg, route intraperitoneal; conditions: in vivo
[22] = system: Mus musculus; assay: Anticonvulsant activity in albino CF1 mouse assessed as protection against maximal electroshock-induced seizures at 100 mg/kg, ip measured after 1 hr; format: functional, organism-based; parameters: dose 100 mg/kg
[23] = system: Mus musculus; assay: Anticonvulsant activity in ip dosed albino CF1 mouse assessed as protection against maximal electroshock-induced seizures measured as time to peak effect; format: functional
[24] = system: Mus musculus; assay: Neurotoxicity in 32 mA current-induced seizure albino CF1 mouse model at 100 mg/kg, ip measured after 1 hr; format: toxicity, organism-based; parameters: dose 100 mg/kg, route intraperitoneal; conditions: in vivo
[25] = system: Rattus norvegicus; assay: Neurotoxicity in MES Sprague-Dawley rat model at 30 mg/kg, ip measured after 1 hr; format: toxicity, organism-based; parameters: dose 30 mg/kg, route intraperitoneal; conditions: in vivo
[26] = system: Mus musculus; assay: Neurotoxicity in 32 mA current-induced seizure albino CF1 mouse model at 100 mg/kg, ip measured after 2 hrs; format: toxicity, organism-based; parameters: dose 100 mg/kg, route intraperitoneal; conditions: in vivo
[27] = system: Mus musculus; assay: Neurotoxicity in albino CF1 mouse assessed as loss of righting reflex at 100 mg/kg, ip measured after 0.25 hr; format: toxicity, organism-based; parameters: dose 100 mg/kg, route intraperitoneal; conditions: in vivo
[28] = system: Mus musculus; assay: Anticonvulsant activity in albino CF1 mouse assessed as protection against 32 mA current-induced seizures at 100 mg/kg, ip measured after 1 hr; format: functional, organism-based; parameters: dose 100 mg/kg
[29] = system: Rattus norvegicus; assay: Anticonvulsant activity in Sprague-Dawley rat assessed as protection against maximal electroshock-induced seizures at 30 mg/kg, ip measured after 2 hrs; format: functional, organism-based; parameters: dose 30 mg/kg
[30] = system: Mus musculus; assay: Anticonvulsant activity in albino CF1 mouse assessed as protection against 32 mA current-induced seizures at 100 mg/kg, ip measured after 4 hrs; format: functional, organism-based; parameters: dose 100 mg/kg
[31] = system: Rattus norvegicus; assay: Anticonvulsant activity in Sprague-Dawley rat assessed as protection against maximal electroshock-induced seizures at 30 mg/kg, ip measured after 0.5 hr; format: functional, organism-based; parameters: dose 30 mg/kg
[32] = system: Rattus norvegicus; assay: Anticonvulsant activity in Sprague-Dawley rat assessed as protection against maximal electroshock-induced seizures at 30 mg/kg, po measured after 4 hrs; format: functional, organism-based; parameters: dose 30 mg/kg
[33] = system: Mus musculus; assay: Anticonvulsant activity in albino CF1 mouse assessed as protection against subcutaneous metrazol-induced seizures at 300 mg/kg, ip measured after 0.5 hr; format: functional, organism-based; parameters: dose 300 mg/kg
[34] = system: Rattus norvegicus; assay: Anticonvulsant activity in Sprague-Dawley rat assessed as protection against maximal electroshock-induced seizures at 30 mg/kg, po measured after 2 hrs; format: functional, organism-based; parameters: dose 30 mg/kg
[35] = system: Mus musculus; assay: Anticonvulsant activity in albino CF1 mouse assessed as protection against maximal electroshock-induced seizures at 100 mg/kg, ip measured after 4 hrs; format: functional, organism-based; parameters: dose 100 mg/kg
[36] = system: Mus musculus; assay: Neurotoxicity in albino CF1 mouse at 100 mg/kg, ip measured after 0.25 hr; format: toxicity, organism-based; parameters: dose 100 mg/kg, route intraperitoneal; conditions: in vivo
[37] = system: Rattus norvegicus; assay: Anticonvulsant activity in Sprague-Dawley rat assessed as protection against maximal electroshock-induced seizures at 30 mg/kg, ip measured after 0.25 hr; format: functional, organism-based; parameters: dose 30 mg/kg
[38] = Neurotoxicity in ip dosed albino CF1 mouse measured at 0.25 hr post dose; format: toxicity, organism-based; conditions: in vivo
[39] = system: Mus musculus; assay: Neurotoxicity in albino CF1 mouse at 100 mg/kg, ip measured after 1 hr; format: toxicity, organism-based; parameters: dose 100 mg/kg, route intraperitoneal; conditions: in vivo
[40] = system: Mus musculus; assay: Anticonvulsant activity in albino CF1 mouse assessed as protection against 32 mA current-induced seizures at 100 mg/kg, ip measured after 0.5 hr; format: functional, organism-based; parameters: dose 100 mg/kg
[41] = system: Mus musculus; assay: Anticonvulsant activity in albino CF1 mouse assessed as protection against maximal electroshock-induced seizures at 100 mg/kg, ip measured after 0.25 hr; format: functional, organism-based; parameters: dose 100 mg/kg
[42] = system: Rattus norvegicus; assay: Neurotoxicity in MES Sprague-Dawley rat model at 30 mg/kg, po measured after 0.5 hr; format: toxicity, organism-based; parameters: dose 30 mg/kg, route oral; conditions: in vivo
[43] = system: Mus musculus; assay: Anticonvulsant activity in albino CF1 mouse assessed as protection against 32 mA current-induced seizures at 100 mg/kg, ip measured after 2 hrs; format: functional, organism-based; parameters: dose 100 mg/kg
[44] = system: Mus musculus; assay: Anticonvulsant activity in ip dosed albino CF1 mouse assessed as protection against subcutaneous metrazol-induced seizures; format: functional
[45] = system: Rattus norvegicus; assay: Neurotoxicity in MES Sprague-Dawley rat model at 30 mg/kg, ip measured after 2 hrs; format: toxicity, organism-based; parameters: dose 30 mg/kg, route intraperitoneal; conditions: in vivo
[46] = system: Mus musculus; assay: Anticonvulsant activity in ip dosed corneal kindled albino CF1 mouse seizure model assessed as time to peak effect; format: functional
[47] = system: Mus musculus; assay: Anticonvulsant activity in albino CF1 mouse assessed as protection against subcutaneous metrazol-induced seizures at 100 mg/kg, ip measured after 4 hrs; format: functional, organism-based; parameters: dose 100 mg/kg
[48] = system: Rattus norvegicus; assay: Anticonvulsant activity in Sprague-Dawley rat assessed as protection against maximal electroshock-induced seizures at 30 mg/kg, ip measured after 4 hrs; format: functional, organism-based; parameters: dose 30 mg/kg
[49] = Protective index, ratio of TD50 for neurotoxicity in ip dosed albino CF1 mouse to ED50 for anticonvulsant activity in ip dosed MES albino CF1 mouse model; format: toxicity, organism-based; conditions: in vivo, read-out: Ratio TD50/ED50
[50] = system: Rattus norvegicus; assay: Anticonvulsant activity in Sprague-Dawley rat assessed as protection against maximal electroshock-induced seizures at 30 mg/kg, po measured after 0.25 hr; format: functional, organism-based; parameters: dose 30 mg/kg
[51] = system: Mus musculus; assay: Anticonvulsant activity in albino CF1 mouse assessed as protection against 32 mA current-induced seizures at 100 mg/kg, ip measured after 0.25 hr; format: functional, organism-based; parameters: dose 100 mg/kg
[52] = system: Rattus norvegicus; assay: Anticonvulsant activity in Sprague-Dawley rat assessed as protection against maximal electroshock-induced seizures at 30 mg/kg, ip measured after 1 hr; format: functional, organism-based; parameters: dose 30 mg/kg
[53] = system: Mus musculus; assay: Anticonvulsant activity in albino CF1 mouse assessed as protection against subcutaneous metrazol-induced seizures at 100 mg/kg, ip measured after 0.5 hr; format: functional, organism-based; parameters: dose 100 mg/kg
[54] = system: Mus musculus; assay: Neurotoxicity in 32 mA current-induced seizure albino CF1 mouse model at 100 mg/kg, ip measured after 0.25 hr; format: toxicity, organism-based; parameters: dose 100 mg/kg, route intraperitoneal; conditions: in vivo

In the case of `Cl.O=C1NC(=O)[C@@H]2CCCN2[C@H]1c1cccc(C(F)(F)F)c1`, the Activity [1] is reported as “Non-toxic”, the Activity [2] is reported as “inactive” and the Activity [3] is reported as “Non-toxic”. For the same molecule, the ED50 [4] was 165 µmol/kg, the Activity [5] was -3.8 g and the ED50 [6] was 119 µmol/kg. For the same molecule, the Time [7] was 0.5 h, the Activity [8] was “Non-toxic” and the Activity [9] was “inactive”. For the same molecule, the Activity [10] was “Non-toxic”, the Activity [11] was “Non-toxic” and the Activity [12] was “Non-toxic”. The Activity [13] was -25 g, the ED50 [14] was 116 µmol/kg and the TD50 [15] was 269 µmol/kg. For the same molecule, the Activity [16] was “inactive”, the Activity [17] was “Non-toxic” and the Activity [18] was “Non-toxic”. For the same molecule, the Activity [19] was “Non-toxic”, the Activity [20] was “Non-toxic” and the Activity [21] was “Non-toxic”. For the same molecule, the Activity [22] was “Active”, the Time [23] was 0.25 h and the Activity [24] was “Non-toxic”. For the same molecule, the Activity [25] was “Non-toxic”, the Activity [26] was “Non-toxic” and the Activity [27] was “Toxic”. For the same molecule, the Activity [28] was “inactive”, the Activity [29] was “inactive” and the Activity [30] was “inactive”. For the same molecule, the Activity [31] was “inactive”, the Activity [32] was “inactive” and the Activity [33] was “Active”. The Activity [34] was “inactive”, the Activity [35] was “inactive” and the Activity [36] was “Toxic”. The Activity [37] was “inactive”, the TD50 at 0.25 h [38] was 166 µmol/kg and the Activity [39] was “Non-toxic”. The Activity [40] was “Active”, the Activity [41] was “Active” and the Activity [42] was “Non-toxic”. The Activity [43] was “inactive”, the ED50 [44] was 218 µmol/kg and the Activity [45] was “Non-toxic”. For the same molecule, the Time [46] was 0.25 h, the Activity [47] was “inactive” and the Activity [48] was “inactive”. For the same molecule, the selectivity ratio [49] was 1.6, the Activity [50] was “inactive” and the Activity [51] was “Active”. The Activity [52] was “inactive”, the Activity [53] was “inactive” and the Activity [54] was “Non-toxic”.

Source: ChEMBL document CHEMBL3352057, “Novel fluorinated pyrrolo[1,2-a]pyrazine-2,6-dione derivatives: synthesis and anticonvulsant evaluation in animal models of epilepsy” (Bioorg Med Chem, 2014)
